# Test results as given in PubChem BioAssay AID330 (DTP/NCI, 2004).
# Values joined by “and” are separate entries in the source; they are usually repeats but may differ in a detail not shown here. Equal entries are not always repeated. Toxic doses and inconclusive results are not listed.
# System: P388 leukemia ip, CD2F1 mice, survival T/C
# Experiment: NCI In Vivo Anticancer Drug Screen. Data for tumor model P388 Leukemia (intraperitoneal) in CD2F1 (CDF1) mice
# Conditions: endpoint: median survival time, higher = longer survival
# Procedure, shortened: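 Mice carrying the transplanted tumor received test compound or vehicle. Survival was recorded in each group, and the value is the treated-group measurement divided by that of the vehicle-treated control group.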
# [1] = dose: 25.0 mg/kg/injection, schedule: Q04DX003 (ip), vehicle: Klucel (hydroxypropylcellulose) (HPC)
# [2] = dose: 50.0 mg/kg/injection, schedule: Q04DX003 (ip), vehicle: Klucel (hydroxypropylcellulose) (HPC)
# [3] = dose: 50.0 mg/kg/injection, schedule: Q01DX005 (ip), vehicle: saline with Tween-80
# [4] = dose: 100.0 mg/kg/injection, schedule: Q01DX005 (ip), vehicle: saline with Tween-80
# [5] = dose: 200.0 mg/kg/injection, schedule: Q01DX005 (ip), vehicle: saline with Tween-80
# [6] = dose: 25.0 mg/kg/injection, schedule: Q01DX009 (ip), vehicle: saline with Tween-80
# [7] = dose: 100.0 mg/kg/injection, schedule: Q01DX009 (ip), vehicle: saline with Tween-80
# [8] = dose: 200.0 mg/kg/injection, schedule: Q01DX009 (ip), vehicle: saline with Tween-80
# [9] = dose: 100.0 mg/kg/injection, schedule: Q04DX003 (ip), vehicle: Klucel (hydroxypropylcellulose) (HPC)
# [10] = dose: 100.0 mg/kg/injection, schedule: Q01DX009 (ip), vehicle: saline
# [11] = dose: 50.0 mg/kg/injection, schedule: Q01DX009 (ip), vehicle: Klucel (hydroxypropylcellulose) (HPC)
# [12] = dose: 100.0 mg/kg/injection, schedule: Q01DX009 (ip), vehicle: Klucel (hydroxypropylcellulose) (HPC)
# [13] = dose: 200.0 mg/kg/injection, schedule: Q01DX009 (ip), vehicle: Klucel (hydroxypropylcellulose) (HPC)
structure (smiles),measurement,setting,value
CC(=O)CC(c1ccccc1)C(C#N)c1ccccc1 (stereo not drawn),T/C,"dose: 12.5 mg/kg/injection, schedule: Q04DX003 (ip), vehicle: Klucel (hydroxypropylcellulose) (HPC)",118 % of control
same,T/C,[1],106 % of control
same,T/C,[2],106 % of control
CCn1c2ccc(N)cc2c2c(N)c(-n3cccc3)ccc21,T/C,[3],100 % of control
same,T/C,[4],100 % of control
same,T/C,[5],100 % of control
Cc1ccc(C)c(CCNC=O)c1,T/C,[6],100 % of control
same,T/C,"dose: 50.0 mg/kg/injection, schedule: Q01DX009 (ip), vehicle: saline with Tween-80",110 % of control
same,T/C,[7],98 % of control
same,T/C,[8],103 % of control
CCOC(=O)C1=C(NC23CC4CC(CC(C4)C2)C3)OCC1=O,T/C,"dose: 60.0 mg/kg/injection, schedule: Q01DX005 (ip), vehicle: saline with Tween-80",107 % of control
same,T/C,"dose: 120.0 mg/kg/injection, schedule: Q01DX005 (ip), vehicle: saline with Tween-80",110 % of control
C[CH2][Sn]([CH2]C)([N](c1ccccn1)c1ccccn1)[N](c1ccccn1)c1ccccn1,T/C,"dose: 1.56 mg/kg/injection, schedule: Q01DX005 (ip), vehicle: Klucel (hydroxypropylcellulose) (HPC)",123 % of control
same,T/C,"dose: 3.12 mg/kg/injection, schedule: Q01DX005 (ip), vehicle: Klucel (hydroxypropylcellulose) (HPC)",119 % of control
same,T/C,"dose: 6.25 mg/kg/injection, schedule: Q01DX005 (ip), vehicle: Klucel (hydroxypropylcellulose) (HPC)",116 % of control and 123 % of control
NC(=S)Nc1ccc(Cc2ccc(NC(N)=S)cc2)cc1,T/C,"dose: 25.0 mg/kg/injection, schedule: Q04DX003 (ip), vehicle: saline with Tween-80",101 % of control
same,T/C,"dose: 50.0 mg/kg/injection, schedule: Q04DX003 (ip), vehicle: saline with Tween-80",101 % of control
same,T/C,"dose: 100.0 mg/kg/injection, schedule: Q04DX003 (ip), vehicle: saline with Tween-80",100 % of control
same,T/C,"dose: 200.0 mg/kg/injection, schedule: Q04DX003 (ip), vehicle: saline with Tween-80",99 % of control
COc1cc2c(=O)oc3c(OC)c(O)cc4c(=O)oc(c1OC)c2c34,T/C,"dose: 2.0 mg/kg/injection, schedule: Q01DX005 (ip), vehicle: saline with Tween-80",97 % of control
same,T/C,"dose: 4.0 mg/kg/injection, schedule: Q01DX005 (ip), vehicle: saline with Tween-80",100 % of control and 96 % of control and 98 % of control
same,T/C,"dose: 8.0 mg/kg/injection, schedule: Q01DX005 (ip), vehicle: saline with Tween-80",92 % of control and 96 % of control and 98 % of control
same,T/C,"dose: 16.0 mg/kg/injection, schedule: Q01DX005 (ip), vehicle: saline with Tween-80",87 % of control and 91 % of control
same,T/C,"dose: 32.0 mg/kg/injection, schedule: Q01DX005 (ip), vehicle: saline with Tween-80",89 % of control
COc1cccc(C2c3cc4c(cc3OC(C)(O)C2C)OCO4)c1O (stereo not drawn),T/C,"dose: 60.0 mg/kg/injection, schedule: Q01DX005 (ip), vehicle: Klucel (hydroxypropylcellulose) (HPC)",96 % of control
same,T/C,"dose: 120.0 mg/kg/injection, schedule: Q01DX005 (ip), vehicle: Klucel (hydroxypropylcellulose) (HPC)",98 % of control
same,T/C,"dose: 240.0 mg/kg/injection, schedule: Q01DX005 (ip), vehicle: Klucel (hydroxypropylcellulose) (HPC)",93 % of control
O=C(NN1CCCCC1)NN1CCCCC1,T/C,[3],101 % of control
same,T/C,[4],100 % of control
same,T/C,[5],100 % of control
O=C(CCl)Nc1ccc2c(c1)C(=O)c1cccn1-2,T/C,"dose: 25.0 mg/kg/injection, schedule: Q01DX001 (ip), vehicle: Klucel (hydroxypropylcellulose) (HPC)",97 % of control
same,T/C,[1],92 % of control
same,T/C,"dose: 50.0 mg/kg/injection, schedule: Q01DX001 (ip), vehicle: Klucel (hydroxypropylcellulose) (HPC)",97 % of control
same,T/C,[2],97 % of control
same,T/C,"dose: 100.0 mg/kg/injection, schedule: Q01DX001 (ip), vehicle: Klucel (hydroxypropylcellulose) (HPC)",96 % of control
same,T/C,[9],107 % of control
CCC1=CC2CN(CCc3c([nH]c4ccccc34)C(C(=O)OC)(c3cc4c(cc3OC)N(C)C3C(C(=O)OC)=CC5(CC)CCCN6CCC43C65)C2)C1 (stereo not drawn),T/C,"dose: 12.5 mg/kg/injection, schedule: Q01DX001 (ip), vehicle: water",100 % of control
same,T/C,"dose: 25.0 mg/kg/injection, schedule: Q01DX001 (ip), vehicle: water",100 % of control
same,T/C,"dose: 50.0 mg/kg/injection, schedule: Q01DX001 (ip), vehicle: water",112 % of control
same,T/C,"dose: 100.0 mg/kg/injection, schedule: Q01DX001 (ip), vehicle: water",100 % of control
same,T/C,"dose: 200.0 mg/kg/injection, schedule: Q01DX001 (ip), vehicle: water",100 % of control
CC(CC(O)C(=O)O)CC(C)(C)C (stereo not drawn),T/C,[3],95 % of control
same,T/C,[4],96 % of control
same,T/C,[5],101 % of control
CC(C)(C)C(C(=O)O)C(=O)O,T/C,"dose: 12.5 mg/kg/injection, schedule: Q01DX009 (ip), vehicle: saline",101 % of control
same,T/C,"dose: 25.0 mg/kg/injection, schedule: Q01DX009 (ip), vehicle: saline",99 % of control
same,T/C,"dose: 50.0 mg/kg/injection, schedule: Q01DX009 (ip), vehicle: saline",96 % of control
same,T/C,[10],99 % of control
COc1cc2c(c(Cl)c1OC)CCN(C)CC2c1ccccc1 (stereo not drawn),T/C,"dose: 60.0 mg/kg/injection, schedule: Q01DX005 (ip), vehicle: saline",102 % of control
same,T/C,"dose: 120.0 mg/kg/injection, schedule: Q01DX005 (ip), vehicle: saline",98 % of control
CCOC(=O)Nc1cc(NC(C)CCCN(CC)CC)c2ncc(-c3cc(OC)c(OC)c(OC)c3)nc2n1 (stereo not drawn) (tested in a mixture with another compound),T/C,"dose: 66.0 mg/kg/injection, schedule: Q01DX009 (ip), vehicle: saline",118 % of control
same,T/C,[10],109 % of control
same,T/C,"dose: 150.0 mg/kg/injection, schedule: Q01DX009 (ip), vehicle: saline",104 % of control
COC(=O)c1csccc1=O,T/C,"dose: 50.0 mg/kg/injection, schedule: Q01DX005 (ip), vehicle: Klucel (hydroxypropylcellulose) (HPC)",112 % of control
same,T/C,"dose: 100.0 mg/kg/injection, schedule: Q01DX005 (ip), vehicle: Klucel (hydroxypropylcellulose) (HPC)",97 % of control
same,T/C,"dose: 200.0 mg/kg/injection, schedule: Q01DX005 (ip), vehicle: Klucel (hydroxypropylcellulose) (HPC)",95 % of control
CCCSCCC(C)(N)C(=O)O (stereo not drawn),T/C,"dose: 25.0 mg/kg/injection, schedule: Q01DX009 (ip), vehicle: Klucel (hydroxypropylcellulose) (HPC)",98 % of control
same,T/C,[11],91 % of control
same,T/C,[12],107 % of control
same,T/C,[13],96 % of control
COc1cc(/C=C/c2cccs2)oc(=O)c1,T/C,[11],103 % of control
same,T/C,[12],103 % of control
same,T/C,[13],103 % of control
Nc1ccccc1N,T/C,[6],95 % of control
same,T/C,[7],120 % of control
same,T/C,"dose: 100.0 mg/kg/injection, schedule: Q04DX003 (ip), vehicle: saline sonified",100 % of control
same,T/C,[8],185 % of control
COc1cc(/C=C/C(=O)c2c(N)n(C)c(=O)n(C)c2=O)cc(OC)c1OC,T/C,[11],113 % of control
same,T/C,[12],115 % of control
same,T/C,[13],113 % of control
CC(=O)NS(=O)(=O)c1ccc(C)cc1,T/C,[9],106 % of control
same,T/C,"dose: 200.0 mg/kg/injection, schedule: Q04DX003 (ip), vehicle: Klucel (hydroxypropylcellulose) (HPC)",107 % of control
same,T/C,"dose: 400.0 mg/kg/injection, schedule: Q04DX003 (ip), vehicle: Klucel (hydroxypropylcellulose) (HPC)",100 % of control
CC1=CS(=O)c2ccccc2N1C (stereo not drawn),T/C,"dose: 50.0 mg/kg/injection, schedule: Q04DX002 (ip), vehicle: Klucel (hydroxypropylcellulose) (HPC)",97 % of control
same,T/C,"dose: 100.0 mg/kg/injection, schedule: Q04DX002 (ip), vehicle: Klucel (hydroxypropylcellulose) (HPC)",100 % of control
same,T/C,"dose: 100.0 mg/kg/injection, schedule: Q04DX002 (ip), vehicle: suspension in saline",109 % of control
same,T/C,"dose: 200.0 mg/kg/injection, schedule: Q04DX002 (ip), vehicle: Klucel (hydroxypropylcellulose) (HPC)",101 % of control
same,T/C,"dose: 200.0 mg/kg/injection, schedule: Q04DX002 (ip), vehicle: suspension in saline",124 % of control
same,T/C,"dose: 400.0 mg/kg/injection, schedule: Q04DX002 (ip), vehicle: Klucel (hydroxypropylcellulose) (HPC)",108 % of control
same,T/C,"dose: 400.0 mg/kg/injection, schedule: Q04DX002 (ip), vehicle: suspension in saline",117 % of control
O=[N+]([O-])c1ccc(Nc2ccccc2[N+](=O)[O-])cc1,T/C,"dose: 7.5 mg/kg/injection, schedule: Q01DX009 (ip), vehicle: saline with Tween-80",94 % of control
same,T/C,"dose: 15.0 mg/kg/injection, schedule: Q01DX009 (ip), vehicle: saline with Tween-80",94 % of control
same,T/C,"dose: 30.0 mg/kg/injection, schedule: Q01DX009 (ip), vehicle: saline with Tween-80",91 % of control
